Data from patent US8993523B2, “Dimeric IAP inhibitors” (Novartis AG, priority 2010, dated 2015).

Legend:
Panc3.27 tumor cells = assay: Cellular assay: Panc3.27 tumor cell proliferation (Cell Titer Glo); type: cell-based; conditions: Panc3.27 cells, 72 hour treatment, read-out: PANC proliferation IC50
Protocol: Cellular Assay—Treatment of Panc3.27 Tumor Cells with Dimeric IAP Antagonists
On day one adherent Panc3.27 cells are plated into two 96-well, clear, flat bottom plates. All wells in row A contain 90 uL of media. All wells in rows B-G contain a total volume of 90 uL per well and 4000 cells per well for Panc3.27 cell lines. Plates are then incubated overnight for 18 hours at 37° C., 5% CO2.
On day two cells are treated with the compounds of formula M-L-M′. Treatments are done in triplicate. The compounds are first serially diluted in DMSO and then added to media giving a final concentration of 0.2% DMSO when added to cells. Cells are treated with 10 uL of serially diluted compounds of formula M-L-M′ at a final concentration of 1000 nM, 200 nM, 40 nM, 8 nM, 1.6 nM, 0.32 nM, 0.06 nM, 0.013 nM, 0.0026 nM, and one untreated well. Plate two is used as a time zero plate.
To measure cell viability 50 uL of Cell Titer Glo (CTG) solution is added to row A, media only and B, cells and media. CTG is purchased from Promega Corporation catalog number G7573. The solution is prepared according to manufacturer's instructions. CTG measures the amount of ATP released from viable cells that is proportional to the number of cells in each well. After incubating for ten minutes with CTG plates are measured on a luminescent reader at 700 nm wavelength. Read time is approximately one second per well for a 96-well plate.
On day five 50 uL of CTG is added to plate one, rows A-G, incubated for 10 minutes at room temperature and read on a luminescent reader. Raw data is adjusted to account for the time zero plate as well as background noise. Triplicate values are averaged and percent control growth is calculated. Percent control growth is calculated using the following logical test: If well read data point (a) is greater than time zero data point (t=0), then 100*[(a)−(t=0)]/[(72 hour total growth)−(t=0)], OR 100*[(a)−(t=0)]/[(t=0)]. Data is represented by line graph with the concentration of compound on the x axis and percent control growth on the y axis.

cIAP1-BIR3 = molecular target: T1, cIAP1-BIR3 (Homo sapiens, UniProt Q13490); assay: Biacore SPR solution inhibition (competition with smac7mer peptide) binding assay, cIAP1-BIR3; conditions: 6 nM cIAP1-BIR3, competition with immobilised smac7mer peptide, 25° C.; read-out: CIAP-BIR3 Binding Biacore (Competitive) EC50
T1 construct: with either 100 nM XIAP-BIR3 or 6 nM cIAP1-BIR3
Excerpt: (§1) The present method includes utility of a Surface plasmon resonance (SPR)-based biosensor (Biacore™ GE Healthcare, Uppsala, Sweden) to examine competition between the compounds of the present invention and smac7mer peptide for XIAP-BIR3 and cIAP1-BIR3 binding groove occupancy.
(§2) Biacore™ utilizes the phenomenon of surface plasmon resonance (SPR) to detect and measure binding interactions. In a typical Biacore experiment, one of the interacting molecules is immobilized on a flexible dextran matrix while the interacting partner is flowed over the derivatized surface. A binding interaction results in an increase in mass on the sensor surface and a corresponding direct change in the refractive index of the medium in the vicinity of the sensor surface. Changes in refractive index or signal are recorded in resonance units (R.U.) Signal changes due to association and dissociation of complexes are monitored in a non-invasive manner, continuously and in real-time, the results of which are reported in the form of a sensorgram.
(§3) Solution Inhibition Assay Format:
(§4) Biacore™ T100 (GE Healthcare, Uppsala, Sweden) was used to conduct all experiments reported herein. Sensor surface preparation and interaction analyses were performed at 25° C. Buffer and Biacore reagents were purchased from GE Healthcare. Running buffer containing 10 mM Hepes, pH7.4, 150 mM sodium chloride, 1.25 mM Dithiothreitol, 2% Dimethyl sulfoxide and 0.05% polysorbate 20 was utilized throughout all experiments.
(§5) Biotinylated smac7mer peptide was diluted to 10 nM in running buffer and captured onto a sensor surface pre-derivatized with streptavidin (sensor chip SA) towards peptide surface densities in the range 40-100 R.U. Peptide captured surfaces were blocked with 500 μM PEO2-Biotin (Thermo Scientific).
(§6) Interaction analyses were performed by first equilibrating each compound within a six point seven fold compound dilution series in the range 1 μM to 0.06 nM with either 100 nM XIAP-BIR3 or 6 nM cIAP1-BIR3 for at least one hour during instrument start-up procedures. Protein compound mixtures were then injected over reference and smac7mer peptide surfaces in series for 60 seconds at a flow-rate of 60 μL/min. Surface regeneration was performed at the end of each analysis cycle by a 30 second injection of 10 mM Glycine, pH 2.5, 1M Sodium Chloride, 0.05% polysorbate 20. Additionally, control compound samples and control XIAP-BIR3 or cIAP1-BIR3 samples were prepared and run at regular intervals to monitor surface and assay performance.
(§7) Data analyses were carried out using Biacore™ T100 evaluation software v2.0 to validate assay quality. Binding level report points were plotted versus logarithmic compound concentration values and analyzed in Graphpad prism 5 via non-linear regression using a one-site competition model. EC50 values were generated and used as a measure of inhibitor potency.

xenograft tumors = assay: In vivo combination study in xenograft tumor mice; conditions: 1× per week, mice with xenograft tumors, 2-3 weeks
Protocol: In vivo combination studies were performed as follows. Cohorts of mice (n=8) were treated with (1) Cohort A: Example 1A (1.8 mg/kg, 1× per week), (2) Cohort B: Paclitaxel (12 mg/kg, 1× per week), or (3) Cohort C: a combination of Example 1A (1.8 mg/kg, 1× per week)+Paclitaxel (12 mg/kg, 1× per week). Studies typically initiated dosing when xenograft tumors were 200 mm^3 and lasted 2-3 weeks. Positive combination activity occurs when neither single agent treatment alone results in tumor regression (i.e. increase in tumor volume is not inhibited in treated animals) but the combination results in tumor regression (i.e. tumor volume decreases in treated animals).

XIAP-BIR3 = molecular target: T2, XIAP-BIR3 (Homo sapiens, UniProt P98170); assay: Biacore SPR solution inhibition (competition with smac7mer peptide) binding assay, XIAP-BIR3; conditions: 100 nM XIAP-BIR3, competition with immobilised smac7mer peptide, 25° C.; read-out: XIAP-BIR3 Binding Biacore (Competitive) EC50
T2 construct: with either 100 nM XIAP-BIR3 or 6 nM cIAP1-BIR3
Excerpt: as §1, §2, §3, §4, §5, §6, §7

T1 sequence (Q13490 260-352 limits assumed): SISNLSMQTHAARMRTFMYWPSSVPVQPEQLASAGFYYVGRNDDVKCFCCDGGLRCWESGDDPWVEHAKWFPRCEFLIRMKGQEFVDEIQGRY
T2 sequence (P98170 241-356 limits assumed): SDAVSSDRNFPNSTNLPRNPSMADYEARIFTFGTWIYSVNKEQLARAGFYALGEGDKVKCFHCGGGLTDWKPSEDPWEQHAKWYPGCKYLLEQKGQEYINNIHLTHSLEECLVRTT

Molecule	IC50 (Panc3.27 tumor cells)	EC50 (cIAP1-BIR3)	EC50 (XIAP-BIR3)	tumor response, single agent (xenograft tumors; Cohort A: 1.8 mg/kg)	tumor growth control (xenograft tumors; Cohort B: 12 mg/kg)
CN[C@@H](C)C(=O)N[C@H](C(=O)N1CCC[C@H]1c1cncc(-n2ccc3c(C(=O)NCCCOCCOCCCNC(=O)c4cccc5c4ccn5-c4cncc([C@@H]5CCCN5C(=O)[C@@H](NC(=O)[C@H](C)NC)C(C)C)c4)cccc32)c1)C(C)C [Example 1A, (S,S,S)—N,N′-(3,3′-(Ethane-1,2-diylbis(oxy))bis(propane-3,1-diyl))bis(1-(5-((S)-1-((S)-3-methyl-2-((S)-2-(methylamino)-propanamido)butanoyl)pyrrolidin-2-yl)pyridin-3-yl)-1H-indole-4-carboxamide)]	0.0026 to 0.83 nM	0.24 to 0.57 nM	34.5 to 56.9 nM	tumor stasis was achieved	
CN[C@@H](C)C(=O)N[C@H](C(=O)N1CCC[C@H]1c1cncc(-n2cc(C(=O)NCCCCCCNC(=O)c3cn(-c4cncc([C@@H]5CCCN5C(=O)[C@@H](NC(=O)[C@H](C)NC)C(C)C)c4)c4ccccc34)c3ccccc32)c1)C(C)C [Example 2L, (S,S,S)—N,N′-(hexane-1,6-diyl)bis(1-(5-((S)-1-((S)-3-methyl-2-((S)-2-(methylamino)propanamido)butanol)pyrrolidin-2-yl)pyridin-3-yl)-1H-indole-3-carboxamide)]	< 0.0026 nM	1.71 to 1.73 nM	25.5 to 25.8 nM		
CN[C@@H](C)C(=O)N[C@H](C(=O)N1CCC[C@H]1c1cncc(-n2cc(C(=O)N3CC4(C3)CN(C(=O)c3cn(-c5cncc([C@@H]6CCCN6C(=O)[C@@H](NC(=O)[C@H](C)NC)C(C)C)c5)c5ccccc35)C4)c3ccccc32)c1)C(C)C [Example 2N, (2S,2′S)—N,N′-((2S,2′S)-1,1′-((2S,2′S)-2,2′-(5,5′-(3,3′-(2,6-diazaspiro[3.3]heptane-2,6-diylbis(oxomethylene))bis(1H-indole-3,1-diyl))bis(pyridine-5,3-diyl))bis(pyrrolidine-2,1-diyl))bis(3-methyyl-1-oxobutane-2,1-diyl))bis(2-(methylamino)propanamide)]	7.04 to 8.37 nM	0.57 to 0.68 nM	32.6 to 33.3 nM		
CN[C@@H](C)C(=O)N[C@H](C(=O)N1CCC[C@H]1c1cncc(-n2cc(C(=O)N3CCN(C(=O)c4cn(-c5cncc([C@@H]6CCCN6C(=O)[C@@H](NC(=O)[C@H](C)NC)C(C)C)c5)c5ccccc45)CC3)c3ccccc32)c1)C(C)C [Example 2O, (2S,2′S)—N,N′-((2S,2′S)-1,1′-((2S,2′S)-2,2′-(5,5′-(3,3′-(piperazine-1,4-diylbis(oxomethylene))bis(1H-indole-3,1-diyl))bis(pyridine-5,3-diyl))bis(pyrrolidine-2,1-diyl))bis(3-methyl-1-oxobutane-2,1-diyl))bis(2-(methylamino)propanamide)]	0.54 to 1.37 nM	2.17 to 2.18 nM	39 nM		
CC(=O)O[C@H]1C(=O)[C@@]2(C)[C@H]([C@H](OC(=O)c3ccccc3)[C@]3(O)C[C@H](OC(=O)[C@H](O)[C@@H](NC(=O)c4ccccc4)c4ccccc4)C(C)=C1C3(C)C)[C@]1(OC(C)=O)CO[C@@H]1C[C@@H]2O [Paclitaxel, reference compound]					> 50%
(S,S,S)—N,N′-(propane-1,3-diyl)bis(1-(5-((S)-1-((S)-3-methyl-2-((S)-2-(methylamino)propanamido)butanoyl)pyrrolidin-2-yl)pyridin-3-yl)-1H-indole-3-carboxamide) [Example 2A]	0.14 to 2.86 nM	0.6 to 1.1 nM	49.8 to 52.2 nM		

More lines, main results first:

IC50 (Panc3.27 tumor cells)	EC50 (cIAP1-BIR3)	EC50 (XIAP-BIR3)	Molecule	tumor response, single agent (xenograft tumors; Cohort A: 1.8 mg/kg)	tumor growth control (xenograft tumors; Cohort B: 12 mg/kg)
< 0.0026 nM	0.7 to 0.71 nM	26.1 to 26.4 nM	CN[C@@H](C)C(=O)N[C@H](C(=O)N1CCC[C@H]1c1cncc(-n2cc(C(=O)N[C@H]3CC[C@H](NC(=O)c4cn(-c5cncc([C@@H]6CCCN6C(=O)[C@@H](NC(=O)[C@H](C)NC)C(C)C)c5)c5ccccc45)CC3)c3ccccc32)c1)C(C)C [Example 2M, 1-(5-((S)-1-((S)-3-methyl-2-((S)-2-(methylamino)propanamido)-butanoyl)pyrrolidin-2-yl)pyridin-3-yl)-N-((1S,4S)-4-(1-(5-((S)-1-((S)-3-methyl-2-((S)-2-(methylamino)propanamido)butanoyl)pyrrolidin-2-yl)pyridin-3-yl)-1H-indole-3-carboxamido)cyclohexyl)-1H-indole-3-carboxamide]		
< 0.0026 nM	1.21 to 1.23 nM	70.9 to 71 nM	CN[C@@H](C)C(=O)N[C@H](C(=O)N1CCC[C@H]1c1cncc(-n2cc(C(=O)NCc3ccc(CNC(=O)c4cn(-c5cncc([C@@H]6CCCN6C(=O)[C@@H](NC(=O)[C@H](C)NC)C(C)C)c5)c5ccccc45)cc3)c3ccccc32)c1)C(C)C [Example 2P, (S,S,S)—N,N′-(1,4-phenylenebis(methylene))bis(1-(5-((S)-1-((S)-3-methyl-2-((S)-2-(methylamino)propanamido)butanoyl)pyrrolidin-2-yl)pyridin-3-yl)-1H-indole-3-carboxamide)]		
0.12 to 0.17 nM	0.59 nM	44.7 nM	[2H]C([2H])([2H])N[C@@H](C)C(=O)N[C@H](C(=O)N1CCC[C@H]1c1cncc(-n2ccc3c(C(=O)NCCCOCCOCCCNC(=O)c4cccc5c4ccn5-c4cncc([C@@H]5CCCN5C(=O)[C@@H](NC(=O)[C@H](C)NC([2H])([2H])[2H])C(C)C)c4)cccc32)c1)C(C)C [Example 3A, (S,S,S)—N,N′-(3,3′-(ethane-1,2-diylbis(oxy))bis(propane-3,1-diyl))bis(1-(5-((S)-1-((S)-3-methyl-2-((S)-2-(trideuteromethylamino)propanamido)butanoyl)-pyrrolidin-2-yl)pyridin-3-yl)-1H-indole-4-carboxamide)]		
